# *1 amine or outer side, *2 acyl side, *3 side chain or, on linkers, in order; H or OH if unused. Where a SMILES comes first, the peptide text is derived from it. Bridges are numbered along the chain shown (N, C = ends). [ ]: non-standard residue; d: D form. The star is where a group is joined. hPhe(3,5-F2-4-CF3) = N[C@@H](CCc1cc(F)c(C(F)(F)F)c(F)c1)C(=O)O; hPhe(3-Cl-4-CF3) = N[C@@H](CCc1ccc(C(F)(F)F)c(Cl)c1)C(=O)O; X37 = O=C([C@H](Cc1ccc(C(F)(F)F)cc1)N(CC1CCC1)[*:1])[*:2]; NPrPhe(4-CF3) = CCCN[C@@H](Cc1ccc(C(F)(F)F)cc1)C(=O)O; NMeGly(cPent) = CN[C@H](C(=O)O)C1CCCC1; NMeD = CN[C@@H](CC(=O)O)C(=O)O; NMeL = CN[C@@H](CC(C)C)C(=O)O; Morpholide = C1CN(*)CCO1; NMeA = CN[C@@H](C)C(=O)O; Ac5c = NC1(C(=O)O)CCCC1; Aze = O=C(O)[C@@H]1CCN1; Sar = CNCC(=O)O
# What was measured:
# [1] = target: GDP-bound HRAS wild-type protein (Homo sapiens, UniProt P01112); test: Binding to HRAS by surface plasmon resonance (SPR), Single Cycle Kinetics; conditions: SPR
# [2] = target: GDP-bound NRAS wild-type protein (Homo sapiens, UniProt P01111); test: Binding to NRAS by surface plasmon resonance (SPR), Single Cycle Kinetics; conditions: SPR
# [3] = KD ratio, GDP-bound HRAS wild-type vs GDP-bound KRAS wild-type
# [4] = KD ratio, GDP-bound NRAS wild-type vs GDP-bound KRAS wild-type
# GDP-bound HRAS wild-type protein, sequence (P01112 whole entry): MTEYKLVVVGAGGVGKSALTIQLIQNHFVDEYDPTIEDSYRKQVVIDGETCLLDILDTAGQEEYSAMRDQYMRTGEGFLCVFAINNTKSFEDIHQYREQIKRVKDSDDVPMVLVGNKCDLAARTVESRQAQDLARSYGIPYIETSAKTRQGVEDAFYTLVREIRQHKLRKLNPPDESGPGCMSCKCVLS
# GDP-bound NRAS wild-type protein, sequence (P01111 whole entry): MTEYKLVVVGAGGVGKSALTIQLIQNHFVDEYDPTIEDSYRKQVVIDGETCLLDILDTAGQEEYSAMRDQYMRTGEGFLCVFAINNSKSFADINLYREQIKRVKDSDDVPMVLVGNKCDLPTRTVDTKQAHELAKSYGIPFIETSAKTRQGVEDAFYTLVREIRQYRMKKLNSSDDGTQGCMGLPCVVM
smiles,measurement,setting,value
CC[C@H](C)[C@@H]1NC(=O)[C@H](CC(C)C)N(C)C(=O)C[C@@H](C(=O)N2CCOCC2)N(C)C(=O)[C@H](C2CCCC2)N(C)C(=O)C2(CCCC2)NC(=O)[C@@H]2CCCN2C(=O)[C@H](CCc2ccc(C(F)(F)F)c(Cl)c2)NC(=O)CN(C)C(=O)[C@H](Cc2ccc(C(F)(F)F)cc2)N(CC2CCC2)C(=O)[C@@H]2CCN2C(=O)[C@H](C)N(C)C1=O [PP0109] ([NMeL]I[NMeA][Aze][X37][Sar][hPhe(3-Cl-4-CF3)]P[Ac5c][NMeGly(cPent)][NMeD]-Morpholide; lactam N-11),HRAS/KRAS (ratio of KD for GDP-bound HRAS wild-type to KD for KRAS),[1]; KD ratio HRAS/KRAS,B (a compound having 3 or more and less than 10 is denoted as B)
same,NRAS/KRAS (ratio of KD for GDP-bound NRAS wild-type to KD for KRAS),[2]; KD ratio NRAS/KRAS,C (A compound having a KD ratio of 0.1 or more and less than 3 is denoted as C)
CCC(CC)[C@H]1C(=O)N(C)[C@H](C(=O)N(C)C)CC(=O)N(C)[C@@H](COC)C(=O)N[C@@H]([C@@H](C)CC)C(=O)N(C)CC(=O)N(C)[C@H]2C/C=C\CCN(C2=O)[C@@H](CC2CCC(F)(F)CC2)C(=O)N(C)CC(=O)N[C@@H](CCc2ccc(C(F)(F)F)c(Cl)c2)C(=O)N2C[C@@H](C)C[C@H]2C(=O)NC2(CC(C)(C)C2)C(=O)N1C [PP2454],HRAS/KRAS (ratio of KD value with respect to HRAS to KD value with respect to KRAS),[1]; GDP-bound HRAS wild-type vs GDP-bound KRAS wild-type,A (a compound having 10 or more and less than 20 is denoted as A)
same,NRAS/KRAS (ratio of KD value with respect to NRAS to KD value with respect to KRAS),[2]; GDP-bound NRAS wild-type vs GDP-bound KRAS wild-type,AA (a compound having 20 or more is denoted as AA)
CCO[C@@H]1C[C@H]2C(=O)NC3(CC(C)(C)C3)C(=O)N(CC)[C@@H](C3CCCC3)C(=O)N(C)[C@H](C(=O)N(C)C)CC(=O)N(C)[C@@H](CC)C(=O)N[C@@H]([C@@H](C)CC)C(=O)N(C)CC(=O)N(C)[C@H]3C/C=C\CCN(C3=O)[C@@H](Cc3ccc(C(F)(F)F)cc3)C(=O)N(C)CC(=O)N[C@@H](CCc3cc(F)c(C(F)(F)F)c(F)c3)C(=O)N2C1 [PP1913],HRAS/KRAS (ratio of KD value for HRAS to KD value for KRAS),[1]; [3],A (a compound having 10 or more and less than 20 is denoted as A)
same,NRAS/KRAS (ratio of KD value for NRAS to KD value for KRAS),[2]; [4],A (a compound having 10 or more and less than 20 is denoted as A)
CCC[C@H]1C(=O)N[C@@H]([C@@H](C)CC)C(=O)N(C)CC(=O)N(C)[C@H]2CCCCCN(C2=O)[C@@H](Cc2ccc(C(F)(F)F)cc2)C(=O)N(C)CC(=O)N[C@@H](CCc2cc(F)c(C(F)(F)F)c(F)c2)C(=O)N2C[C@H](OCC)C[C@H]2C(=O)NC2(CCC2)C(=O)N(C)[C@@H](C2CCCC2)C(=O)N(C)[C@H](C(=O)N2CCOCC2)CC(=O)N1C [PP0679],HRAS/KRAS (ratio of KD value with respect to GDP-bound HRAS wild-type protein to KD value with respect to KRAS),[1]; KD ratio HRAS/KRAS,B (a compound having 3 or more and less than 10 is denoted as B)
same,NRAS/KRAS (ratio of KD value with respect to GDP-bound NRAS wild-type protein to KD value with respect to KRAS),[2]; KD ratio NRAS/KRAS,B (a compound having 3 or more and less than 10 is denoted as B)
CC[C@H](C)[C@@H]1NC(=O)[C@H](CC(C)C)N(C)C(=O)C[C@@H](C(=O)N2CCOCC2)N(C)C(=O)[C@H](C2CCCC2)N(C)C(=O)C2(CCC2)NC(=O)[C@@H]2C[C@@H](OCC3CC3)CN2C(=O)[C@H](CCc2cc(F)c(C(F)(F)F)c(F)c2)NC(=O)CN(C)C(=O)[C@H](Cc2ccc(C(F)(F)F)cc2)N2CCCC[C@@H](C2=O)N(C)C(=O)CN(C)C1=O [PP1014],HRAS/KRAS (ratio of KD value with respect to HRAS to KD value with respect to KRAS),[1]; [3],C (A compound having a KD ratio of 0.1 or more and less than 3 is denoted as C)
same,NRAS/KRAS (ratio of KD value with respect to NRAS to KD value with respect to KRAS),[2]; [4],C (A compound having a KD ratio of 0.1 or more and less than 3 is denoted as C)
"CCCN1C(=O)CN(C)C(=O)CN(C)C(=O)[C@H]([C@@H](C)CC)NC(=O)[C@H](CC(C)C)N(C)C(=O)C[C@@H](C(=O)N2CCOCC2)N(C)C(=O)[C@H](C2CCCC2)N(C)C(=O)C2(CCCC2)NC(=O)[C@@H]2CCCN2C(=O)[C@H](CCc2cc(F)c(C(F)(F)F)c(F)c2)NC(=O)CN(C)C(=O)[C@@H]1Cc1ccc(C(F)(F)F)cc1 [PP0753] ([NMeL]I[Sar][Sar][NPrPhe(4-CF3)][Sar][hPhe(3,5-F2-4-CF3)]P[Ac5c][NMeGly(cPent)][NMeD]-Morpholide; lactam N-11)",HRAS/KRAS (ratio of KD value with respect to GDP-bound HRAS wild-type protein to KD value with respect to KRAS),[1]; KD ratio HRAS/KRAS,C (A compound having a KD ratio of 0.1 or more and less than 3 is denoted as C)
same,NRAS/KRAS (ratio of KD value with respect to GDP-bound NRAS wild-type protein to KD value with respect to KRAS),[2]; KD ratio NRAS/KRAS,B (a compound having 3 or more and less than 10 is denoted as B)
CC[C@H](C)[C@@H]1NC(=O)[C@H](CC(C)C)N(C)C(=O)C[C@@H](C(=O)N2CCOCC2)N(C)C(=O)[C@H](C2CCCC2)N(C)C(=O)C2(CC2)NC(=O)[C@@H]2CCCN2C(=O)[C@H](CCc2cc(F)c(C(F)(F)F)c(F)c2)NC(=O)CN(C)C(=O)[C@H](Cc2ccc(C(F)(F)F)cc2)N2CCCCC[C@@H](C2=O)N(C)C(=O)CN(C)C1=O [PP0496],HRAS/KRAS (ratio of KD value with respect to GDP-bound HRAS wild-type protein to KD value with respect to KRAS),[1]; KD ratio HRAS/KRAS,B (a compound having 3 or more and less than 10 is denoted as B)
same,NRAS/KRAS (ratio of KD value with respect to GDP-bound NRAS wild-type protein to KD value with respect to KRAS),[2]; KD ratio NRAS/KRAS,B (a compound having 3 or more and less than 10 is denoted as B)
